# Measured values published in patent US7365200B2, “Thienopyridinone derivatives as macrophage migration inhibitory factor inhibitors” (Avanir Pharmaceuticals, priority 2005, dated 2008).
# Tested on: not given
# Experiment: not given
# Details: not given
row,melting point [°C],Structure (SMILES)
1,223,"Cc1csc2c1c(N1CCN(C(=O)c3cccs3)CC1)c(C#N)c(=O)n2Cc1ccccc1 [Compound 67, 7-benzyl-3-methyl-6-oxo-4-[4-(thiophene-2-carbonyl)-piperazin-1-yl]-6,7-dihydro-thieno[2,3-b]pyridine-5-carbonitrile]"
2,286,"N#Cc1c(N2CCN(C(=O)c3cccs3)CC2)c2sccc2n(Cc2ccc(F)cc2)c1=O [Compound 28, 4-(4-fluoro-benzyl)-5-oxo-7-[4-(thiophene-2-carbonyl)-piperazin-1-yl]-4,5-dihydro-thieno[3,2-b]pyridine-6-carbonitrile]"
3,246,"CCOC(=O)c1c(N2CCN(C(=O)c3ccco3)CC2)c2sccc2n(CC(=O)c2ccccc2)c1=O [Compound 13, 7-[4-(furan-2-carbonyl)-piperazin-1-yl]-5-oxo-4-(2-oxo-2-phenyl-ethyl)-4,5-dihydro-thieno[3,2-b]pyridine-6-carboxylic acid ethyl ester]"
4,95 to 113,"CCOC(=O)c1c(N2CCN(C(=O)c3cccs3)CC2)c2sccc2n(Cc2cccc(F)c2)c1=O [Compound 9, 4-(3-fluoro-benzyl)-5-oxo-7-[4-(thiophene-2-carbonyl)-piperazin-1-yl]-4,5-dihydro-thieno[3,2-b]pyridine-6-carboxylic acid ethyl ester]"
5,238,"N#Cc1c(N2CCN(C(=O)c3cccs3)CC2)c2cscc2n(Cc2ccc(F)cc2)c1=O [Compound 49, 4-(4-fluoro-benzyl)-5-oxo-7-[4-(thiophene-2-carbonyl)-piperazin-1-yl]-4,5-dihydro-2-thia-4-aza-indene-6-carbonitrile]"
6,227,"CCOC(=O)c1c(N2CCN(C(=O)c3cccs3)CC2)c2cscc2n(Cc2ccc(F)cc2)c1=O [Compound 42, 4-(4-fluoro-benzyl)-5-oxo-7-[4-(thiophene-2-carbonyl)-piperazin-1-yl]-4,5-dihydro-2-thia-4-aza-indene-6-carboxylic acid ethyl ester]"
7,282,"N#Cc1c(N2CCN(C(=O)c3cccs3)CC2)c2cscc2n(-c2cccnc2)c1=O [Compound 52, 5-oxo-4-pyridine-3-yl-7-[4-(thiophene-2-carbonyl)-piperazin-1-yl]-4,5-dihydro-2-thia-4-aza-indene-6-carbonitrile]"
8,240,"CCOC(=O)c1c(N2CCN(C(=O)c3cccs3)CC2)c2sccc2n(CC(=O)c2ccccc2)c1=O [Compound 7, 5-oxo-4-(2-oxo-2-phenyl-ethyl)-7-[4-(thiophene-2-carbonyl)-piperazin-1-yl]4,5-dihydro-thieno[3,2-b]pyridine-6-carboxylic acid ethyl ester]"

# Continued, molecule first:
row,Structure (SMILES),melting point [°C]
1,"N#Cc1c(N2CCN(C(=O)c3cccs3)CC2)c2cscc2n(CC(=O)c2ccccc2)c1=O [Compound 48, 5-oxo-4-(2-oxo-2-phenyl-ethyl)-7-[4-(thiophene-2-carbonyl)-piperazin-1-yl]-4,5-dihydro-2-thia-4-aza-indene-6-carbonitrile]",308
2,"COC(=O)c1ccc(Cn2c(=O)c(C#N)c(N3CCN(C(=O)c4cccs4)CC3)c3cscc32)cc1 [Compound 50, 4-{6-cyano-5-oxo-7-[4-(thiophene-2-carbonyl)-piperazin-1-yl]-5H-2-thia-4-aza-indene-4-ylmethyl}-benzoic acid methyl ester]",263
3,"N#Cc1c(N2CCN(C(=O)c3cccs3)CC2)c2sccc2n(CC(=O)c2ccccc2)c1=O [Compound 30, 5-oxo-4-(2-oxo-2-phenyl-ethyl)-7-[4-(thiophene-2-carbonyl)-piperazin-1-yl]-4,5-dihydro-thieno[3,2-b]pyridine-6-carbonitrile]",300

# Molecular target: T1, MIF produced by THP-1 cells (Homo sapiens, UniProt P14174)
# T1 construct: THP-1 cell supernatant was collected and incubated with a candidate compound; endogenous in cells; host or cells: THP-1 cells, LPS-stimulated, culture supernatant
# T1 sequence (P14174 2-115 limits assumed): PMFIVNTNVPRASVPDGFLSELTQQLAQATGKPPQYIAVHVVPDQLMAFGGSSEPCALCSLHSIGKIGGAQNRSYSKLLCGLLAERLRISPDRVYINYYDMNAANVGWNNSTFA
# Experiment: Antibody binding assay of MIF inhibitors (ELISA, 96-well format)
# Details: LPS-stimulated THP-1 cell supernatant incubated with compound; MIF monoclonal antibody capture ELISA; read-out: In vitro MIF IC50
# Protocol: An antibody binding assay for MIF inhibitors was performed on selected compounds in a 96-well format using MIF produced by THP-1 cells. The THP-1 cells were washed once with 250 μl of 0.1 M sodium carbonate, pH 11.4, for 1 to 2 minutes and immediately aspirated. The THP-1 cells were then washed with media containing 0.5% FBS plus 25 μg/ml heparin and then incubated in this same medium for the indicated lengths of time. The THP-1 cells were resuspended to approx. 5×10^6 cells/ml in RPMI medium containing 20 μg/ml of bacterial LPS and incubated for 18-20 hours, after which THP-1 cell supernatant was collected and incubated with a candidate compound. A 96-well ELISA plate (Costar Number 3590) was coated with a MIF monoclonal antibody (R&D Systems Catalog Number MAB289) at a concentration of 4 μg/ml for two hours at 37° C. Undiluted THP-1 cell culture supernatant incubated with the candidate compound was added to the ELISA plate for a two-hour incubation at room temperature. The wells were then washed, a biotinylated MIF polyclonal antibody (R&D Systems #AF-289-PB) was added followed by Streptavidin-HRP and a chromogenic substrate. The amount of MIF was calculated by interpolation from an MIF standard curve.
row,IC50 [nM],Structure (SMILES)
1,254,N#Cc1c(N2CCN(C(=O)c3cccs3)CC2)c2sccc2n(Cc2cccnc2)c1=O [Compound 111]
2,59,N#Cc1c(N2CCN(C(=O)c3cccs3)CC2)c2cscc2n(Cc2cccnc2)c1=O [Compound 104]
3,387,CC(C)OC(=O)c1c(N2CCN(C(=O)c3cccs3)CC2)c2sccc2n(Cc2cccc(F)c2)c1=O [Compound 125]
4,419,N#Cc1c(N2CCN(C(=O)c3cccs3)CC2)c2sccc2n(Cc2ccc(F)cc2)c1=O [Compound 113]
5,595,N#Cc1c(N2CCN(C(=O)c3cccs3)CC2)c2sccc2n(Cc2cccc(F)c2)c1=O [Compound 112]
6,146,CCOC(=O)c1c(N2CCN(C(=O)c3cccs3)CC2)c2sccc2n(Cc2cccc(F)c2)c1=O [Compound 121]
7,40,CCOC(=O)c1c(N2CCN(C(=O)c3cccs3)CC2)c2cscc2n(Cc2ccc(F)cc2)c1=O [Compound 106]
8,171,N#Cc1c(N2CCN(C(=O)c3cccs3)CC2)c2cscc2n(-c2cccnc2)c1=O [Compound 108]

# More lines, now with the values behind:
row,Structure (SMILES),IC50 [nM]
1,CCOC(=O)c1c(N2CCN(C(=O)c3cccs3)CC2)c2cscc2n(Cc2ccc(C(=O)OC)cc2)c1=O [Compound 107],35
2,CCOC(=O)c1c(N2CCN(C(=O)c3cccs3)CC2)c2sccc2n(Cc2cccnc2)c1=O [Compound 124],269
3,CCOC(=O)c1c(N2CCN(C(=O)c3cccs3)CC2)c2sccc2n(Cc2ccc(F)cc2)c1=O [Compound 109],233
4,CCOC(=O)c1c(N2CCN(C(=O)c3ccc(F)s3)CC2)c2sccc2n(Cc2cccc(F)c2)c1=O [Compound 126],648
5,CCOC(=O)c1c(N2CCN(C(=O)c3ccco3)CC2)c2sccc2n(Cc2cccc(F)c2)c1=O [Compound 122],5840
6,CCOC(=O)c1c(N2CCN(C(=O)c3cccs3)CC2)c2sccc2n(CC(=O)c2ccccc2)c1=O [Compound 120],799
7,CCOC(=O)c1c(N2CCN(C(=O)c3cccs3)CC2)c2cscc2n(CC(=O)c2ccccc2)c1=O [Compound 105],53
8,CCOC(=O)c1c(N2CCN(C(=O)c3cccs3)CC2)c2c(C)csc2n(Cc2ccccc2)c1=O [Compound 115],11800
9,N#Cc1c(N2CCN(C(=O)c3cccs3)CC2)c2cscc2n(CC(=O)c2ccccc2)c1=O [Compound 101],70
10,N#Cc1c(N2CCN(C(=O)c3cccs3)CC2)c2ccsc2n(Cc2ccccc2)c1=O [Compound 116],139
11,N#Cc1c(N2CCN(C(=O)c3cccs3)CC2)c2sccc2n(CC(=O)c2ccccc2)c1=O [Compound 110],1730
12,CCOC(=O)c1c(N2CCN(C(=O)c3ccco3)CC2)c2sccc2n(CC(=O)c2ccccc2)c1=O [Compound 123],8770
13,N#Cc1c(N2CCN(C(=O)c3cccs3)CC2)c2cscc2n(Cc2ccc(F)cc2)c1=O [Compound 102],82
14,COC(=O)c1ccc(Cn2c(=O)c(C#N)c(N3CCN(C(=O)c4cccs4)CC3)c3cscc32)cc1 [Compound 103],437
15,CCOC(=O)c1c(N2CCN(C(=O)c3ccco3)CC2)c2sccc2n(Cc2ccc(F)cc2)c1=O [Compound 119],4150
16,CCOC(=O)c1c(N2CCN(C(=O)c3cccs3)CC2)c2cc(C)sc2n(Cc2cccc(F)c2)c1=O [Compound 127],32
17,Cc1csc2c1c(N1CCN(C(=O)c3cccs3)CC1)c(C#N)c(=O)n2Cc1ccccc1 [Compound 117],12300
18,CCOC(=O)c1c(N2CCN(C(=O)c3cccs3)CC2)c2ccsc2n(Cc2ccccc2)c1=O [Compound 114],70
